Consider 98 molecules from a flash point compilation (Sun et al. 2020).

Counter-ions that a name gives are not always drawn.

Turning to `C[C@@H]1CCCC[C@H]1O` (relative stereo) [trans-2-methylcyclohexanol], the flash point came to 59 °C. The same measure, in the same setting: the result for `CC(Cl)Cl` [1,1-dichloroethane] reads -10 °C; that for `CCOC(CC)OCC` [1,1-diethoxypropane], 13 °C.

The source holds these as a separate data set.
In turn, `C=CC(=O)OC` [methyl prop-2-enoate] gave a flash point of 7.00 °C. `CCC(=O)OC` [methyl propanoate] gave a flash point of -2.00 °C. Same read-out and setting: the result for `CS(C)=O` [methylsulfinylmethane] reads 95.00 °C; that for `Nc1cccc2ccccc12` [naphthalen-1-amine], 157.00 °C.

`Oc1cccc2c(O)cccc12` [naphthalene-1,5-diol]: the flash point was found to be 252.00 °C. On the same count and under the same terms, the result for `c1ccc2ccccc2c1` [naphthalene] reads 88.00 °C. Same read-out and setting: the result for `C[N+](=O)[O-]` [nitromethane] reads 35.00 °C; that for `C=CCCCCCCC` [non-1-ene], 26.00 °C; that for `CCCCCCCCC=O` [nonanal], 83.00 °C. Still for that read-out and setting: the result for `O=C(O)CCCCCCCC(=O)O` [nonanedioic acid] reads 210.00 °C. Molecule `CCCCCCCCC(=O)O` [nonanoic acid] displayed a flash point of 133.00 °C. Molecule `C=CCCCCCC` [oct-1-ene] displayed a flash point of 21.00 °C. Same read-out and setting: the result for `CCCCCCCCCCCCCCCCCCN` [octadecan-1-amine] reads 149.00 °C.

`CCCCCCCCCCCCCCCCCCS` [octadecane-1-thiol]: the flash point is 185.00 °C. The same measure, in the same setting: the result for `CCCCCCCCCCCCCCCCCCOC(=O)CCCCCCCCCCCCCCC` [octadecyl hexadecanoate] reads 238.00 °C; that for `CCCCCC(=O)CC` [octan-3-one], 46.00 °C; that for `CCCCCCCC=O` [octanal], 52.00 °C. Consider `CCCCCCCC(=O)O` [octanoic acid], for which the flash point was found to be 110.00 °C. Still for that read-out and setting: the result for `C=C(C)C(=O)OCCCCCCCC` [octyl 2-methylprop-2-enoate] reads 91.00 °C. Regarding `C=CC(=O)OCCCCCCCC` [octyl prop-2-enoate], the flash point worked out at 82.00 °C.

`O=CC=O` [oxaldehyde] came in with a flash point of 220.00 °C. Still for that read-out and setting: the result for `O=C1CCO1` [oxetan-2-one] reads 70.00 °C; that for `C=CC(=O)OCC1CO1` (stereo not drawn) [oxiran-2-ylmethyl prop-2-enoate], 61.00 °C; that for `C1CO1` [oxirane], -18.00 °C.

As to `O=C1CCCO1` [oxolan-2-one], the flash point stood at 98.00 °C. On the same count and under the same terms, the result for `OCC1CCCO1` (stereo not drawn) [oxolan-2-ylmethanol] reads 75.00 °C; that for `O=C1CCC(=O)O1` [oxolane-2,5-dione], 157.00 °C. In turn, `C1CCOC1` [oxolane] returned a flash point of -14.00 °C. Same read-out and setting: the result for `C=CCCC` [pent-1-ene] reads -51.00 °C. As for `C=CC=CC` [penta-1,3-diene], the flash point was -28.00 °C. On the same count and under the same terms, the result for `CCCC(C)OC(C)=O` (stereo not drawn) [pentan-2-yl acetate] reads 32.00 °C; that for `CCC(O)CC` [pentan-3-ol], 30.00 °C; that for `NCCCCCN` [pentane-1,5-diamine], 62.00 °C. The same measure, in the same setting: the result for `OCCCCCO` [pentane-1,5-diol] reads 129.00 °C; that for `CCC(=O)C(C)=O` [pentane-2,3-dione], 19.00 °C. On the same count and under the same terms, the result for `CCCCCOC(C)=O` [pentyl acetate] reads 33.00 °C. `CCCCCOC=O` [pentyl formate]: the flash point stood at 26.00 °C. Same read-out and setting: the result for `CCCCCO[N+](=O)[O-]` [pentyl nitrate] reads 49.00 °C; that for `CCCCCOC(=O)CC` [pentyl propanoate], 41.00 °C.

`c1ccc(Oc2ccccc2)cc1` [phenoxybenzene] displayed a flash point of 115.00 °C. As for `CC(=O)Oc1ccccc1` [phenyl acetate], the flash point came to 80.00 °C. Same read-out and setting: the result for `OCc1ccccc1` [phenylmethanol] reads 101.00 °C; that for `C1CNCCN1` [piperazine], 88.00 °C; that for `C=C(C)OC(C)=O` [prop-1-en-2-yl acetate], 16.00 °C. On to `C=C(C)c1ccccc1` [prop-1-en-2-ylbenzene], for which the flash point was 54.00 °C. The same measure, in the same setting: the result for `C=CC` [prop-1-ene] reads -108.00 °C. Take `C=CC=O` [prop-2-enal]: the flash point is -26.00 °C.

For `C=CC(=O)O` [prop-2-enoic acid], the flash point was found to be 54.00 °C. Still for that read-out and setting: the result for `C=CC(=O)Cl` [prop-2-enoyl chloride] reads 14.00 °C; that for `C=CCOC(=O)COCCC(C)C` [prop-2-enyl 2-(3-methylbutoxy)acetate], 68.00 °C. Molecule `C=CCOC(=O)CC(C)C` [prop-2-enyl 3-methylbutanoate] displayed a flash point of 39.00 °C.

`CC(C)N` [propan-2-amine] displayed a flash point of -37.00 °C. The same measure, in the same setting: the result for `CC(C)=O` [propan-2-one] reads -18.00 °C. Same read-out and setting: the result for `CC(C)OC(=O)Cc1ccccc1` [propan-2-yl 2-phenylacetate] reads 95.00 °C. Still for that read-out and setting: the result for `CC(C)OC=O` [propan-2-yl formate] reads -6.00 °C.

In turn, `CC(O)CO` (stereo not drawn) [propane-1,2-diol] came in with a flash point of 99.00 °C.

Regarding `CCCS` [propane-1-thiol], the flash point is -15.00 °C. Still for that read-out and setting: the result for `CC(C)S` [propane-2-thiol] reads -34.00 °C; that for `CCC(=O)O` [propanoic acid], 54.00 °C. Take `CCC(=O)OC(=O)CC` [propanoyl propanoate]: the flash point is 63.00 °C. Same read-out and setting: the result for `C=C(C)C(=O)OCCC` [propyl 2-methylprop-2-enoate] reads 30.00 °C.

In turn, `CCCOC(=O)c1cc(O)c(O)c(O)c1` [propyl 3,4,5-trihydroxybenzoate] displayed a flash point of 187.00 °C. The same measure, in the same setting: the result for `CCCOC(C)=O` [propyl acetate] reads 14.00 °C.

`CCCc1ccccc1` [propylbenzene] registered a flash point of 48.00 °C. The same measure, in the same setting: the result for `Nc1ccccn1` [pyridin-2-amine] reads 92.00 °C; that for `NNC(=O)c1ccncc1` [pyridine-4-carbohydrazide], 190.00 °C. The molecule `C=Cc1ccccc1` [styrene] had a flash point of 31.00 °C. Same read-out and setting: the result for `CC(C)(C)c1ccccc1` [tert-butylbenzene] reads 60.00 °C; that for `CCCCCCCCCCCCCC` [tetradecane], 100.00 °C.

Molecule `C[Si](C)(C)C` [tetramethylsilane] came in with a flash point of -27.00 °C. On to `C1CCSC1` [thiolane], for which the flash point is 13.00 °C. The same measure, in the same setting: the result for `CCCCOB(OCCCC)OCCCC` [tributyl borate] reads 93.00 °C. The same measure, in the same setting: the result for `Cl[Si](Cl)(Cl)C1CCCCC1` [trichloro(cyclohexyl)silane] reads 91.00 °C; that for `CCCCCCCCCCCCCCCC[Si](Cl)(Cl)Cl` [trichloro(hexadecyl)silane], 146.00 °C. The same measure, in the same setting: the result for `CCCCCCCCCCCCCCCCCC[Si](Cl)(Cl)Cl` [trichloro(octadecyl)silane] reads 89.00 °C; that for `CCCCC[Si](Cl)(Cl)Cl` [trichloro(pentyl)silane], 63.00 °C; that for `C=CC[Si](Cl)(Cl)Cl` [trichloro(prop-2-enyl)silane], 35.00 °C. `Clc1ccc([Si](Cl)(Cl)Cl)cc1Cl` [trichloro-(3,4-dichlorophenyl)silane] had a flash point of 141.00 °C. Same read-out and setting: the result for `ClC(Cl)(Cl)c1ccccc1` [trichloromethylbenzene] reads 127.00 °C; that for `C1=CC2C3C=CC(C3)C2C1` (stereo not drawn) [tricyclo[5.2.1.02,6]deca-3,8-diene], 32.00 °C. The same measure, in the same setting: the result for `C=CCCCCCCCCCCC` [tridec-1-ene] reads 79.00 °C; that for `CCCCCCCCCCCC(C)=O` [tridecan-2-one], 107.00 °C.

`C[CH2][Al]([CH2]C)[CH2]C` [triethylalumane] gave a flash point of -53.00 °C.

In turn, `CCB(CC)CC` [triethylborane] showed a flash point of -36.00 °C. Still for that read-out and setting: the result for `O=P(Oc1ccccc1)(Oc1ccccc1)Oc1ccccc1` [triphenyl phosphate] reads 220.00 °C. The same measure, in the same setting: the result for `c1ccc(P(c2ccccc2)c2ccccc2)cc1` [triphenylphosphane] reads 180.00 °C; that for `CC(C)OB(OC(C)C)OC(C)C` [tripropan-2-yl borate], 28.00 °C. On the same count and under the same terms, the result for `Cc1ccc(OP(=O)(Oc2ccc(C)cc2C)Oc2ccc(C)cc2C)c(C)c1` [tris(2,4-dimethylphenyl) phosphate] reads 232.00 °C; that for `O=P(OCCCl)(OCCCl)OCCCl` [tris(2-chloroethyl) phosphate], 232.00 °C; that for `CCCCC(CC)COP(OCC(CC)CCCC)OCC(CC)CCCC` (stereo not drawn) [tris(2-ethylhexyl) phosphite], 171.00 °C.

`CC(C)[CH2][Al]([CH2]C(C)C)[CH2]C(C)C` [tris(2-methylpropyl)alumane] yielded a flash point of -23.00 °C.

Molecule `Cc1ccc(OP(=O)(Oc2ccc(C)cc2)Oc2ccc(C)cc2)cc1` [tris(4-methylphenyl) phosphate] displayed a flash point of 210.00 °C. Same read-out and setting: the result for `CCCCCCCCCCCO` [undecan-1-ol] reads 93.00 °C.

On to `S=C([S-])NCCNC(=S)[S-].[Zn+2]` [zinc;N-[2-(sulfidocarbothioylamino)ethyl]carbamodithioate], for which the flash point was 90.00 °C. With `CCCCCCCCCCCCCCCCCC(=O)[O-].CCCCCCCCCCCCCCCCCC(=O)[O-].[Zn+2]` [zinc;octadecanoate], the flash point is 277.00 °C.
